In US20130012709A1, “NOVEL INHIBITORS OF STEAROYL-CoA-DESATURASE-1 AND THEIR USES” (CENTRE NATIONAL DE LA RECHERCHE SCIENTIFIQUE, priority 2009, published 2013):

Assays:
[1] = tested on: β-catenin-Tcf4 complex in C4-2 cells; test: TCF/LEF-1 reporter (pTOP-FLASH) luciferase assay; type: cell-based, human
Experimental: (§1) The transcriptional activity of the β-catenin-Tcf4 complex was analysed by performing transient transfections with 0.25 μg TCF/LEF-1 reporter (pTOP-FLASH) or control vector (pFOP-FLASH).
(§2) Luciferase activities in cell lysates were normalized relative to the β-galactosidase activity to correct for differences in transfection efficiency.

[2] = tested on: β-catenin-Tcf4 complex in LNCaP cells; test: TCF/LEF-1 reporter (pTOP-FLASH) luciferase assay; type: cell-based, human
Experimental: as §1, §2

[3] = tested on: SCDs; test: Determination of SCD activity in transformed MEFs; type: cell-based, mouse; conditions: 25 μM
Experimental: Subconfluent LNCaP, C4-2, PNT2 of Ras SV40 MEFs cells grown in 6-wells plate were incubated with the tested inhibitor at 25 μM for 2 h in serum and fatty acid-free DMEM media supplemented 0.2% BSA. In this environment, the cells are solely dependent on endogenous fatty acid synthesis for production of storage, structural and signaling lipids. Trace amount of [^14C] palmitic acid were then added to the culture (0.5 μCi/well), and cells were incubated for 6 more hours. At the end of the incubation, total cell lipids were extracted and saponified, then released fatty acids were esterified with boron trifluoride in methanol for 90 min at 100° C. The derived methyl esters were separated by argentation TLC (Thermo Fisher Scientific) following the procedure of Wilson and Sargen, using a solvent phase consisting of hexane:ethyl ether (90:10, by vol) (35). Pure stearic and oleic methyl ester acids were run in parallel to the samples. Air-dried plates were scanned on a Phosphorlmager and fatty acid spots on TLC were analysed with Phosphorlmager software. SCD activity was expressed as the ratio of palmitoleic on palmitic methyl ester acids and normalized to cellular DNA content.

[4] = tested on: transformed MEFs; test: Apoptosis, annexinV-FITC flow cytometry; type: cell-based, mouse; conditions: all transformed cells, 25 μM, 24 h
Experimental: Cells were then rinsed in PBS, pelleted at 400 g for 5 min and maintained on ice for 20 min before resuspension in a […] propidium iodide (Sigma) solution. Cells were kept overnight at 4° C. and the percentages of cells in G1, S and G2-M phases of the cell cycle were measured with a Coulter Epics XL™ flow cytometer (Becton Dickinson) using 488-nm laser excitation. For apoptosis experiment, MEFs were treated with the tested compound at 25 μM for 24 h, then rinced in PBS, pelleted at 400 g for 5 min and stained with annexinV-FITC (Roche Diagnostics, Meylan, France) for 15 min at 4° C. The percentage of annexin positive cells was immediately analysed using 488-nm laser excitation.

## COc1ccc(Br)c(C(=O)N2CCN(c3ccc(C(=O)NCCCc4ccccc4)cn3)CC2)c1 [BZ36]
[1]
  activity of a β-cat reporter: decreased activity
[2]
  activity of a β-cat reporter: decreased activity
[3]
  [14C]-palmitoleic to palmitic methyl ester acids ratio: decreased lipogenesis
[4]
  cell death (annexin V-positive cells): strong induction of cell death
